Results taken from article PMC10439952, “JT002, a small molecule inhibitor of the NLRP3 inflammasome for the treatment of autoinflammatory disorders” (Scientific Reports, 2023).

Test system: OVA sensitized, OVA challenged and iTreg transferred CD8α-/- mice
Assay: Murine model of iTreg induced IL-17-dependent neutrophilic asthma
Format: in vivo, mouse
Method: In an allergen-dependent, inducible regulatory T cell (iTreg) model of IL-17-dependent neutrophilic asthma, ovalbumin (OVA) sensitized recipient CD8α^−/− mice are administered iTreg cells intratracheally (i.t.) on Day 26 after the first OVA challenge and subsequently challenged with OVA on Days 26–28[48] (Fig. 5A). This model elicits TH17-dependent IL-17 release that promotes airway neutrophilia and enhanced airway hyperresponsiveness (AHR) to inhaled methacholine. We investigated the effect of JT002 at two doses in OVA sensitized, OVA challenged and iTreg transferred CD8α^−/− mice. JT002 was administered to mice once daily (QD) by oral gavage (p.o.) on Days 23–29 at 2.5 mg/kg (n = 3/group) and at 25 mg/kg (n = 7/group) before evaluation of airway hyperresponsiveness (AHR) and airway inflammation on Day 30 (Fig. 5A). Additional control groups included vehicle treated disease animals (OVA/OVA + iTregs; n = 7/group), OVA sensitized, OVA challenged control animals (OVA/OVA; n = 6/group) and phosphate buffer saline (PBS) sensitized, OVA challenged animals (PBS/OVA; n = 4/group). […] Sensitization and challenge with OVA led to an increase in total serum IgE as well as OVA-specific serum IgE, IgG1 and IgG2b even in the absence of iTreg instillation (Fig. 5E, Supplementary Fig. 4C).
CD4^+CD25^− T cells were enriched from spleens of naïve C57BL/6 mice to > 98% purity with MACS beads (Miltenyi Biotec, Bergisch-Gladbach, Germany). Cells were washed, counted, and resuspended to a final concentration of 4 × 10^6 cells per mL and cultured in X-Vivo 15 (Lonza, Wakersville, MD) supplemented with 5 ng/mL IL-2 and stimulated with bound anti-CD3 and 2 μg/mL soluble anti-CD28 with 5 ng/mL TGF-β for five to seven days to generate iTregs. Female CD8α^−/− C57BL6/j mice were sensitized by intraperitoneal injection of 20 μg OVA (Sigma Aldrich, St. Louis, MO) emulsified in 2.25 mg alum hydroxide (Imject Alum, Pierce, Rockford, IL) in a total volume of 100 μL on Days 0 and 14. Sensitized and challenged mice, denoted OVA/OVA, and non-sensitized but challenged littermates (PBS/OVA) received aerosol challenges for 20 min each day on three consecutive days (Days 26–28) with 1% OVA in PBS using an ultrasonic nebulizer (Omron, Vernon Hills, IL). On Day 26, differentiated iTregs cells generated in vitro were washed and adoptively transferred (5 × 10^5 in 50 μL of PBS) into OVA/OVA mice, denoted as OVA/OVA + iTregs. OVA/OVA + iTregs mice were dosed orally with JT002 at 2.5 or 25 mg/kg once daily on Days 23–29 or with vehicle (0.5% methyl cellulose, 0.25% Tween 80 in 50 mM NaH2PO4/Na2HPO4 at pH 8).
Determination of airway hyperresponsiveness (AHR) AHR was assessed on Day 30 (iTreg model) or 3 h after the O3 exposure (ozone model) as a change in airway resistance (cm H2O/mL/s) after challenge with aerosolized methacholine with using a whole body plethysmograph-based system (National Jewish Medical and Research Center, Denver, CO). Methacholine aerosol was administered by nebulization in increasing concentrations (12.5–100 mg/mL) and RL was continuously computed by fitting flow, volume, and pressure to an equation of motion (Labview, National Instruments, Dallas, TX). Bronchoalveolar Lavage Immediately after assessment of AHR, lungs were lavaged via the tracheal tube with 1 mL of Hanks’ balanced salt solution (Gibco, Grand Island, NY). Total cell numbers were counted. Differential cell counts for neutrophils and macrophages were performed in a blinded fashion by counting at least 200 cells on cytocentrifuged preparations (Model Cytospin 3, Shandon Ltd, Runcorn, UK) stained with Leukostat (Fisher Diagnostics, Fair Lawn, NJ). Cell-free BAL fluid was stored at − 80 °C until measurements of cytokine levels by ELISA (eBioscience, San Diego, CA) were performed. Blood Collection Immediately following AHR measurement, mice were euthanized by exsanguination and blood collected for serum. Samples were stored at − 80 °C for subsequent measurement of immunoglobulin levels by ELISA. […]

[1] = low dose 2.5 mg/kg p.o. QD Days 23–29

Compound: CO[C@@H]1COc2c(S(=O)(=O)NC(=O)Nc3c4c(cc5c3CCC5)CCC4)cnn2C1 [JT002]
- BAL IL-6 concentration (25 mg/kg p.o. QD Days 23–29): significantly decreased
- BAL IL-10 concentration (25 mg/kg p.o. QD Days 23–29): strong trend for increased
- BAL IL-17 concentration (25 mg/kg p.o. QD Days 23–29): significantly decreased
- BAL INFγ concentration (25 mg/kg p.o. QD Days 23–29): increased
- airway eosinophilia (25 mg/kg p.o. QD Days 23–29): no effect
- airway hyperresponsiveness (AHR) (25 mg/kg p.o. QD Days 23–29): significantly decreased
- airway neutrophilia (25 mg/kg p.o. QD Days 23–29): significantly decreased
- submucosal inflammatory cell infiltration (25 mg/kg p.o. QD Days 23–29): visibly decreased
- serum OVA-specific IgE (high dose (25 mg/kg)): significant decrease
- serum OVA-specific IgG isoforms (high dose (25 mg/kg)): no significant effect
- serum total IgE (high dose (25 mg/kg)): significant decrease
- airway hyperresponsiveness (AHR) [1]: no significant changes
- airway inflammation [1]: no significant changes
